# Assay results as given in PubChem BioAssay AID1963976 (Molecular Pharmacology Branch, DTP, NCI, 2024).
# System: 435261-313-R-J1-PDC tumor spheroid viability
# Assay: Anticancer human tumor 435261-313-R-J1-PDC patient-derived colon adenocarcinoma cell line growth inhibition [PI3K]
# Details: spheroids with HUVEC and MSC; for IC50: curve of first compound; for viability, T/C: stronger effect = lower value
# In short: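 Three cell types, namely tumor cells, endothelial cells and mesenchymal stem cells, formed each spheroid. Combinations with four PI3K inhibitors were screened at clinically achievable concentrations decreasing by half-log, and spheroid viability was recorded.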
# [1] = second compound 0.0316 µM, first compound 0.0316 µM
# [2] = second compound 0.0316 µM, first compound 0.1 µM
# [3] = second compound 0.0316 µM, first compound 0.316 µM
# [4] = second compound 0.0316 µM, first compound 1 µM
# [5] = second compound 0.0316 µM, first compound 3.16 µM
# [6] = second compound 0.0316 µM, first compound 10 µM
# [7] = second compound 0.1 µM, first compound 0.0316 µM
# [8] = second compound 0.1 µM, first compound 0.1 µM
# [9] = second compound 0.1 µM, first compound 0.316 µM
# [10] = second compound 0.1 µM, first compound 1 µM
# [11] = second compound 0.1 µM, first compound 3.16 µM
# [12] = second compound 0.1 µM, first compound 10 µM
# [13] = second compound 0.316 µM, first compound 0.0316 µM
# [14] = second compound 0.316 µM, first compound 0.1 µM
# [15] = second compound 0.316 µM, first compound 0.316 µM
# [16] = second compound 0.316 µM, first compound 1 µM
# [17] = second compound 0.316 µM, first compound 3.16 µM
# [18] = second compound 0.316 µM, first compound 10 µM
# [19] = second compound 1 µM, first compound 0.0316 µM
# [20] = second compound 1 µM, first compound 0.1 µM
# [21] = second compound 1 µM, first compound 0.316 µM
# [22] = second compound 1 µM, first compound 1 µM
# [23] = second compound 1 µM, first compound 3.16 µM
# [24] = second compound 1 µM, first compound 10 µM
# [25] = second compound 3.16 µM, first compound 0.0316 µM
# [26] = second compound 3.16 µM, first compound 0.1 µM
# [27] = second compound 3.16 µM, first compound 0.316 µM
# [28] = second compound 3.16 µM, first compound 1 µM
# [29] = second compound 3.16 µM, first compound 3.16 µM
# [30] = second compound 3.16 µM, first compound 10 µM
# [31] = second compound 10 µM, first compound 0.0316 µM
# [32] = second compound 10 µM, first compound 0.1 µM
# [33] = second compound 10 µM, first compound 0.316 µM
# [34] = second compound 10 µM, first compound 1 µM
# [35] = second compound 10 µM, first compound 3.16 µM
# [36] = second compound 10 µM, first compound 10 µM
# 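Also: spheroids exposed to compounds for 7 days.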
compound,measurement,setting,value
CCCS(=O)(=O)Nc1ccc(F)c(C(=O)c2c[nH]c3ncc(-c4ccc(Cl)cc4)cc23)c1F + Cc1nc(NC(=O)N2CCCC2C(N)=O)sc1-c1ccnc(C(C)(C)C(F)(F)F)c1,IC50,second compound 0.0316 µM,5.15 µM
same,IC50,second compound 0.1 µM,4.87 µM
same,IC50,second compound 0.316 µM,4.37 µM
same,IC50,second compound 1 µM,0.0316 µM
same,IC50,second compound 3.16 µM,< 0.0316 µM
same,IC50,second compound 10 µM,< 0.0316 µM
same,"viability, T/C",[1],68.7%
same,"viability, T/C",[2],117%
same,"viability, T/C",[3],121%
same,"viability, T/C",[4],107%
same,"viability, T/C",[5],83%
same,"viability, T/C",[6],5.07%
same,"viability, T/C",[7],78.3%
same,"viability, T/C",[8],95.7%
same,"viability, T/C",[9],104%
same,"viability, T/C",[10],83.9%
same,"viability, T/C",[11],77%
same,"viability, T/C",[12],6.18%
same,"viability, T/C",[13],57.6%
same,"viability, T/C",[14],78%
same,"viability, T/C",[15],70.4%
same,"viability, T/C",[16],64.5%
same,"viability, T/C",[17],67.8%
same,"viability, T/C",[18],4.86%
same,"viability, T/C",[19],25.2%
same,"viability, T/C",[20],37.8%
same,"viability, T/C",[21],73.2%
same,"viability, T/C",[22],59.3%
same,"viability, T/C",[23],38.3%
same,"viability, T/C",[24],4.97%
same,"viability, T/C",[25],17.6%
same,"viability, T/C",[26],21.1%
same,"viability, T/C",[27],32.8%
same,"viability, T/C",[28],35.9%
same,"viability, T/C",[29],24.6%
same,"viability, T/C",[30],4.64%
same,"viability, T/C",[31],11.3%
same,"viability, T/C",[32],12.2%
same,"viability, T/C",[33],14.2%
same,"viability, T/C",[34],15.7%
same,"viability, T/C",[35],14.9%
same,"viability, T/C",[36],1.88%
C=CC(=O)N1CCN(c2nc(=O)n(-c3c(C)ccnc3C(C)C)c3nc(-c4c(O)cccc4F)c(F)cc23)C(C)C1 (stereo unspecified) + CC(Nc1ncnc2nc[nH]c12)c1cc2cccc(Cl)c2c(=O)n1-c1ccccc1,IC50,second compound 0.0316 µM,> 10 µM
same,IC50,second compound 0.1 µM,> 10 µM
same,IC50,second compound 0.316 µM,> 10 µM
same,IC50,second compound 1 µM,> 10 µM
same,IC50,second compound 3.16 µM,> 10 µM
same,IC50,second compound 10 µM,> 10 µM
same,"viability, T/C",[1],67.3%
same,"viability, T/C",[2],84.8%
same,"viability, T/C",[3],103%
same,"viability, T/C",[4],117%
same,"viability, T/C",[5],116%
same,"viability, T/C",[6],103%
same,"viability, T/C",[7],78.4%
same,"viability, T/C",[8],79.9%
same,"viability, T/C",[9],103%
same,"viability, T/C",[10],84.3%
same,"viability, T/C",[11],109%
same,"viability, T/C",[12],103%
same,"viability, T/C",[13],92%
same,"viability, T/C",[14],95%
same,"viability, T/C",[15],85.4%
same,"viability, T/C",[16],94.1%
same,"viability, T/C",[17],122%
same,"viability, T/C",[18],108%
same,"viability, T/C",[19],76.3%
same,"viability, T/C",[20],77%
same,"viability, T/C",[21],102%
same,"viability, T/C",[22],91.9%
same,"viability, T/C",[23],130%
same,"viability, T/C",[24],109%
same,"viability, T/C",[25],53.7%
same,"viability, T/C",[26],68.8%
same,"viability, T/C",[27],89.2%
same,"viability, T/C",[28],106%
same,"viability, T/C",[29],87.9%
same,"viability, T/C",[30],79.5%
same,"viability, T/C",[31],49.3%
same,"viability, T/C",[32],49.6%
same,"viability, T/C",[33],54.6%
same,"viability, T/C",[34],55.1%
same,"viability, T/C",[35],74.9%
same,"viability, T/C",[36],66.4%
Cn1ncnc1[C@H]1c2n[nH]c(=O)c3cc(F)cc(c23)N[C@@H]1c1ccc(F)cc1 + CC(Nc1ncnc2nc[nH]c12)c1cc2cccc(Cl)c2c(=O)n1-c1ccccc1,IC50,second compound 0.0316 µM,> 0.1 µM
same,IC50,second compound 0.1 µM,> 0.1 µM
same,IC50,second compound 0.316 µM,0.0763 µM
same,IC50,second compound 1 µM,> 0.1 µM
same,IC50,second compound 3.16 µM,> 0.1 µM
same,IC50,second compound 10 µM,0.000725 µM
same,"viability, T/C","second compound 0.0316 µM, first compound 0.000316 µM",116%
same,"viability, T/C","second compound 0.0316 µM, first compound 0.001 µM",80.9%
same,"viability, T/C","second compound 0.0316 µM, first compound 0.00316 µM",76.1%
same,"viability, T/C","second compound 0.0316 µM, first compound 0.01 µM",82.5%
same,"viability, T/C",[1],59.2%
same,"viability, T/C",[2],53.5%
same,"viability, T/C","second compound 0.1 µM, first compound 0.000316 µM",90.6%
same,"viability, T/C","second compound 0.1 µM, first compound 0.001 µM",124%
same,"viability, T/C","second compound 0.1 µM, first compound 0.00316 µM",104%
same,"viability, T/C","second compound 0.1 µM, first compound 0.01 µM",106%
same,"viability, T/C",[7],85.2%
same,"viability, T/C",[8],69.9%
same,"viability, T/C","second compound 0.316 µM, first compound 0.000316 µM",81%
same,"viability, T/C","second compound 0.316 µM, first compound 0.001 µM",54.3%
same,"viability, T/C","second compound 0.316 µM, first compound 0.00316 µM",71.4%
same,"viability, T/C","second compound 0.316 µM, first compound 0.01 µM",78.3%
same,"viability, T/C",[13],62.1%
same,"viability, T/C",[14],45.6%
same,"viability, T/C","second compound 1 µM, first compound 0.000316 µM",80.3%
same,"viability, T/C","second compound 1 µM, first compound 0.001 µM",59.1%
same,"viability, T/C","second compound 1 µM, first compound 0.00316 µM",80.9%
same,"viability, T/C","second compound 1 µM, first compound 0.01 µM",82.1%
same,"viability, T/C",[19],56.6%
same,"viability, T/C",[20],52.7%
same,"viability, T/C","second compound 3.16 µM, first compound 0.000316 µM",53.3%
same,"viability, T/C","second compound 3.16 µM, first compound 0.001 µM",57.3%
same,"viability, T/C","second compound 3.16 µM, first compound 0.00316 µM",75.8%
same,"viability, T/C","second compound 3.16 µM, first compound 0.01 µM",49.5%
same,"viability, T/C",[25],71.1%
same,"viability, T/C",[26],56.2%
same,"viability, T/C","second compound 10 µM, first compound 0.000316 µM",58%
same,"viability, T/C","second compound 10 µM, first compound 0.001 µM",50.8%
same,"viability, T/C","second compound 10 µM, first compound 0.00316 µM",34.9%
same,"viability, T/C","second compound 10 µM, first compound 0.01 µM",35.4%
same,"viability, T/C",[31],39%
same,"viability, T/C",[32],33.3%
CC1(C)CCC(Nc2ncc(C(F)(F)F)c(-c3c[nH]c4c(P(C)(C)=O)c(C#N)ccc34)n2)CN1 (stereo unspecified),"viability, T/C",compound 0.0316 µM,68.8% [middle of 4 runs]
same,"viability, T/C",compound 0.1 µM,59.7% [middle of 4 runs]
same,"viability, T/C",compound 1 µM,54.3% [middle of 4 runs]
same,"viability, T/C",compound 3.16 µM,51.3% [middle of 4 runs]
same,"viability, T/C",compound 10 µM,1.48% [middle of 4 runs]
